Source: US20210113687A1, “METHODS FOR TREATING INFLAMMATION” (NEW YORK UNIVERSITY, priority 2013, published 2021)

Key:
[1] = test system: human Netrin-1 promoter luciferase reporter construct; assay: Netrin-1 promoter-luciferase assay in HEK293T; assay type: cell-based; conditions: BAY 11-7082 20 μM pretreatment
Protocol: Netrin-1 Promoter-Luciferase MMV HEK293T were transfected with a human Netrin-1 promoter luciferase reporter construct (SwitchGear Genomics) using Lipofectamine™ 2000 (Invitrogen). After transfection, media was changed and cells were pretreated with the NFKB inhibitor BAY 11-7082 (20 μM) for 1 hour prior stimulation with 100 μg/ml oxLDL or PBS as a control for 24 hours. Luciferase activity was assessed using the Dual-Glo Luciferase Assay System (Promega) and normalized to a constitutively expressed Renilla reporter.

[2] = test system: BMDM; assay: qRT-PCR of BMDM (palmitate, cytokines, adipocyte conditioned media); assay type: cell-based, mouse; conditions: direct addition of cytokine
Protocol: Real-time Quantitative RT-PCR Analysis RNA (0.5-1 μg) was reverse transcribed using iScript™ cDNA Synthesis Kit (Biorad) and RT-PCR analysis was conducted using kapa SYBR green Supermix (kappa syber) and a Mastercycler Realplex (Eppendorf) the primers used are listed. Fold change in mRNA expression was calculated using the comparative cycle method (ΔΔCt).
(§1) Cell culture. Primary bone marrow derived macrophage (BMDM) was prepared by flushing the bone marrow of the tibia and femur of 6-8 week old C57/B6 mice. The cells were grown in DMEM supplemented with 15% L929-conditioned media, 10% FBS and 1% penicillin/streptomycin for 7 days. BMDM were stimulated 250 pM palmitate conjugated with BSA or BSA as a control for 24 hours, or TNFα (10 ng/ml, 410-MT-010; R&D systems), IL-6 (40 nglml, 406-ML-005; R&D systems) and IL-4 (1 Onglml, 404-ML-010; R&D systems) for 24 h. In some assays, differentiated BMDM were treated with conditioned media from 3T3-L1 adipocytes differentiated as described (Lin, et al., J Biol Chem, 2005; 280:4617-4626) and treated with 250 pM palmitate conjugated with BSA or BSA for 24 hours. In certain experiments, anti-TNFα (0.4 μg/ml, AF-410-NA, R&D systems) or anti-IL-6 (0.025 μg/ml, MAB406; R&D systems) blocking antibody or IgG control (Normal Goat IgG: AB-108-C, Rat IgG1: MAB005; R&D systems) was added to conditioned media. Peritoneal macrophages were isolated as described (van Gils, et al., Nat Immunol, 2012; 13:136-143). Mice were injected intraperitoneally with 1 ml of 3% (wt/vol) thioglycolate to elicit sterile sterile peritonitis with macrophage numbers peaking on day 4. Cells were collected by lavage and used for migration assays.
Palmitate-BSA preparation. Sodium palmitate (P9767; Sigma Aldrich) was dissolved in sterile water in to make a 100-mM solution by alternating heating and vortexing until the palmitate was dissolved. Thu occurred once the solution reached 70 C. […]

[3] = test system: BMDM; assay: netrin-1 ELISA of BMDM supernatants; assay type: cell-based, mouse; conditions: blocking NFkB
Protocol: as §1, with “Peritoneal macrophages were isolated as described (van Gils, et al., Nat Immunol, 2012; 13:136-143). Mice were injected intraperitoneally with 1 ml of 3% (wt/vol) thioglycolate to elicit sterile sterile peritonitis with macrophage numbers peaking on day 4. Cells were collected by lavage and used for migration assays.” left out
ELISA assay. Insulin (90080; crystal Chem Inc), adiponectin (ab108785; Abeam), FFA (SFA-1; Zen Bio), TNFa (88-7064-76; ebiosciences) and netrin-1 (E91827Mu; USCN life science Inc) levels were measured in the serum using mouse standards according to manufacturer's guidelines. Netrin-1 in human serum was measured using a human-specific netrin-1 ELISA from USCN Life Science Inc (700176; mybiosource).

[4] = test system: human NTNI promoter-luciferase reporter; assay: NTN1 promoter-luciferase assay (Example 4); assay type: cell-based; conditions: pretreating with NFkB inhibitor
Protocol: (§2) Promoter-Luciferase assays. HEK293T cells were transfected with human NTNI or Unc5H2 promoter-luciferase reporter constructs (SwitchGear Genomics) using Lipofectamine™ 2000 (11668-019, Invitrogen) After transfection, media was changed and cells were treated with palmitate or BSA for 24 hours, in the presence or absence of the NFkB inhibitor BAY 11-7082 (10 μmol/L). Luciferase activity was measured using the DUAL-Glo Luciferase Assay system (E1910, Promega).

[5] = test system: human Unc5H2 promoter-luciferase reporter; assay: Unc5H2 promoter-luciferase assay (Example 4); assay type: cell-based; conditions: pretreating with NFkB inhibitor
Protocol: as §2

[6] = test system: Human NTN1 promoter-luciferase reporter; assay: NTN1 promoter luciferase assay (Example 2); assay type: cell-based
Protocol: (§3) Human NTN1 or UNC5B promoter-luciferase reporter plasmids (Switchgear Genomics) were transfected into HEK293T using Lipofectamine™ 2000 (11668-019, Invitrogen). After transfection, media was changed and cells were treated with oxLDL (50 μg/ml) or CoCl2 (0.1 mM), or DMOG (1 mmol/1) for 24 hours, in the presence or absence (PBS control) of inhibitors of NFκB (10 μmol/L Bay11-7082) or HIF1α (100 μmol/L HIF-1α inhibitor). Luciferase activity was measured using foe DUAL-Glo Luciferase Assay system (E1910, Promega) and normalized to a constitutively expressed renilla reporter or to protein concentration.

[7] = test system: BMDMs; assay: Apoptotic assays of growth-factor deprived BMDM (TUNEL, active caspase-3); assay type: cell-based, mouse
Protocol: To induce apoptosis, BMDMs were grown in foe absence of L929 conditioned media (CM) for 3 days under normoxic or hypoxic conditions. In some assays, cells were treated with 100 μmol/L HIF-1α inhibitor or Unc5b-FC fragment or control IgG. After treatment, apoptotic cells were labeled with PE-active caspase-3 (557091, BD pharmingen) or by the TUNEL method using an in situ cell detection kit (Roche Diagnostics). Active Caspase-3, TUNEL and DAPI staining were analyzed with a Nikon Eclipse fluorescent microscope. Only TUNEL positive cells that colocalized with DAPI stained nuclei were considered apoptotic.

[8] = test system: BMDMs; assay: qPCR of macrophages under hypoxic stress; assay type: cell-based, mouse
Protocol: Primary bone marrow derived macrophage (BMDM) were prepared by flushing the bone marrow of the tibia and femur of 6-8 week old C57/B6 mice as described (The cells were grown in DMEM supplemented with 15% L929-conditioned media, 10% FBS and 1% penicillin/streptomycin for 7 days and then treated with oxLDL or subjected to hypoxic conditions. Hypoxic incubations were carried out at 37° C. in a Billups-Rothenberg modular incubator chamber at 1% O2, 5% CO2 and 94% N2 for 24 hours. J774 control (J774con) and HIF-1α overexpressing (J774Hif) macrophages (Parathath et al., Circ. Res. 2011; 109:1141-1152) were grown in 5.5 mmol/L glucose containing DMEM supplemented with 15% FBS and 1% penicillin/streptomycin.
Total RNA was isolated using TRIZOL reagent and RNA ([…]) was reverse transcribed with an iScript cDNA Synthesis kit according to the manufacturer's instructions (Bio-Rad). RT-PCR analysis was performed using iQ SYBR green Supermix (Biorad) and a Mastercycler Realplex (Eppendorf) as we described (van Gils et al., Nat Immunol, 2012; 13:136-143). The change in mRNA expression was calculated by the comparative change-in-cycle-method (DDCT) relative to GAPDH mRNA levels. The following primer sets were used;

[9] = test system: Human UNC5B promoter-luciferase reporter; assay: UNC5B promoter luciferase assay (Example 2); assay type: cell-based; conditions: treatment with HIF-1α inhibitor
Protocol: as §3

[10] = test system: Rac1; assay: Rac1 activation assay; assay type: cell-based, mouse; conditions: MCP-1 stimulation, within 5 minutes
Protocol: Rac1 activation assays Peritoneal macrophages were seeded in a 6-well plate overnight in regular growth media. The cells were stimulated with MCP-1 (10 ng/ml R&D systems) for 5 minutes with or without a pretreatment with mouse recombinant netrin-1 (250 ng/ml, R&D Systems) for 30 minutes. At the end of stimulation the cells were lysed and Rac1-GTP levels were measured using Rac1 Activation Assay (Cell Biolabs) according manufacturer's instructions.

[11] = test system: mouse peritoneal macrophages; assay: Migration assay of peritoneal macrophages (pMø); assay type: cell-based; conditions: for inhibitory effect of netrin-1 on CCL19-induced migration: macrophages pre-incubated with agent
Protocol: Migration assays. Chemotaxis of macrophages (pMø, RAW264.7) and CaSMC was measured in 96-well Boyden chamber with a 5 μm (macrophages) or 8 μm pore size filter (CaSMC) (Neuro Probe) as previously described (Ly, et al., Proc Natl Acad Sci USA, 2005, 102: 14729-14734). Macrophage chemotaxis was also quantified using a Real-time Cell Invasion and Migration (RT-CIM)×Celligence assay system with monitoring every 5 min (Roche Applied Science). […] In some assays, cells were pretreated with netrin-1 or UNC5b blocking antibody (AF1006, R&D Systems) or Neogenin blocking antibody (Santa Cruz, sc-6537) or control goat IgG (Santa Cruz) for 1 hour prior to migration. Following cell migration for 3 or 16 hours (CaSMC and macrophages, respectively), four random high power fields from each well were counted to determine the number of cells that had migrated into the lower chamber. Migration was expressed as chemotactic index, which was calculated by dividing the number of migrating cells in the treated groups by the number of migrating cells in the lowest control well. Results of chemotaxis assays are representative of at least three independent experiments performed on triplicate samples.

[12] = test system: peritoneal macrophages; assay: Migration of palmitate-treated peritoneal macrophages to CCL19; assay type: cell-based, mouse; conditions: addition of Unc5b-FC
Protocol: as §1, with “Mice were injected intraperitoneally with 1 ml of 3% (wt/vol) thioglycolate to elicit sterile sterile peritonitis with macrophage numbers peaking on day 4. Cells were collected by lavage and used for migration assays.” left out
Migration. The migration of ATM or peritoneal macrophages to CCL19 (500 ng/ml; R&D Systems) was assessed by the xCelligence Real-time Cell Invasion and Migration system (ACEA biosciences Inc) that monitored chemotaxis every 5 minutes for over 6 h. […]

[13] = test system: J774Hif macrophages; assay: J774 macrophage migration (xCelligence); assay type: cell-based, mouse; conditions: treated with Unc5b-FC, no exogenous chemokine
Protocol: (§4) Macrophage chemotaxis was measured using the Real-Time Cell Invasion and Migration xCelligence Assay System with monitoring every 3 min (Roche Applied Science). BMDM migration towards MCP-1 (100 ng/ml; R&D Systems) was measured in the presence or absence of oxLDL (50 μg/ml) and/or recombinant rat UNC5b-Fc chimera (1006-UN; R&D Systems) to block the effects of netrin-1. In a subset of experiments, cells were pre-treated with 0.1 mmol/L CoCl2 for 1 h prior to migration. J774 macrophage migration was carried out in the presence or absence of UNC5b-Fc chimera. Results of chemotaxis assays are representative of at least three independent experiments performed on triplicate samples.

[14] = test system: BMDM; assay: BMDM migration towards MCP-1 (xCelligence); assay type: cell-based, mouse; conditions: treatment with Unc5b-FC
Protocol: as §4

Cc1ccc(S(=O)(=O)/C=C/C#N)cc1 [BAY 11-7082]
oxLDL induction of netrin-1 promoter activity [1]: inhibited

TNFα
Ntn1 mRNA in BMDMs [2]: increased Ntn1 mRNA

CC(C)(C)c1ccc(S(=O)(=O)/C=C/C#N)cc1 [BAY 11-7085]
palmitate-induced secretion of netrin-1 by BMDM [3]: inhibited, in part
palmitate-induced Ntn1-promoter luciferase activity [4]: inhibited, in part
palmitate-induced Unc5b-promoter luciferase activity [5]: inhibited, in part

COC(=O)c1ccc(O)c(NC(=O)COc2ccc(C34CC5CC(CC(C5)C3)C4)cc2)c1 [HIF-1α inhibitor]
oxLDL- and DMOG-induced increase in Ntn1 promoter activity ([6]; presence or absence of HIF-1α inhibitor): dependent on HIF-1α activity
protection from apoptosis (TUNEL) under hypoxic conditions ([7]; growth-factor deprived BMDM, HIF-1α inhibitor): reversed
oxLDL-induced Unc5b mRNA in BMDM ([8]; HIF-1α inhibitor): required HIF-1α activity
Unc5b mRNA in response to low oxygen concentration, CoCl2 or DMOG ([8]; pre-treated with HIF-1α inhibitor): no upregulation of Unc5b
increase in Ntn1 mRNA under hypoxia, CoCl2, DMOG or oxLDL ([8]; pretreatment with HIF-1α inhibitor): blocked
oxLDL-induced increase in Unc5b promoter activity [9]: abrogated

COC(=O)CNC(=O)C(=O)OC [DMOG, dimethyloxalylglycine]
Ntn1 promoter activity ([6]; HEK293 cells): potently induced

MCP-1: chemokine MCP-1 (R&D Systems)
levels of activated Rac1 [10]: approximately 3 fold

Cn1c(=O)c2nc(-c3ccccc3)[nH]c2n(C)c1=O [inhibitor of the A2B adenosine receptor]
inhibitory effect of netrin-1 on CCL19-induced migration [11]: no change

UNC5b-Fc: recombinant rat UNC5b-Fc chimera (cat #1006-UN, R&D Systems) to block the effects of netrin-1
migration of palmitate-treated macrophages to CCL19 [12]: restored
TUNEL and active caspase-3 staining under hypoxic conditions ([7]; growth factor deprived macrophages, Unc5b-FC): increased TUNEL and active caspase-3 staining similar to normoxic controls
migration of J774-HIF cells [13]: comparable to control J774 macrophages
CoCl2 impairment of macrophage migration to MCP-1 [14]: reversed this effect
inhibition of migration to CCL19 by conditioned medium from oxLDL-treated macrophages ([11]; addition of recombinant UNC5b-Fc): reversed
inhibitory effect of netrin-1 on CCL19-induced migration [11]: reversed the inhibitory effect of netrin-1
